Values of other authors as cited in US20090297541A1, “MATURATION OF DENDRITIC CELLS” (priority 2006, published 2009).

How the values were obtained:
[1] = biological target: IFNGR1 chain; details: high affinity
[2] = system: immature DCs; details: MPLA at low doses (under 50 μg/ml)
[3] = system: monocyte-derived DCs; details: MPLA alone at concentrations up to 100 μg/ml
[4] = system: murine DCs

| Kd [1] [nM] | Substance | impact on DC maturation (monitored by IL-12 production) [2] | production of IL-12p70 or IL-10 [3] | migration and functional maturation of DCs in vivo [4] |
| --- | --- | --- | --- | --- |
| ~1 | IFN-gamma: cytokine, homodimer of two noncovalently bound polypeptide subunits; IFNγ receptor agonist | – | – | – |
| – | Monophosphoryl lipid A [MPLA] | no impact on DC maturation | failed to induce any significant production of IL-12p70 or IL-10 | induces the migration and functional maturation of murine DCs in vivo |
